Among the test systems are 786-0; A549; EKVX; HOP-62; K562; KM12; M14; MCF7; MOLT-4; NCI-H226; NCI/ADR-RES; OVCAR-3; OVCAR-5; RPMI-8226; RXF 393; SF-539; SK-OV-3; SNB-19; U-251; SK-MEL-5.
Common to all, as to test: NCI-60 cell line screen, 48 h

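Where inhibition never reached the appropriate level, the endpoint shown equals the highest concentration tested. Otherwise, values were interpolated linearly from a five-concentration, 48-hour dose response in 96-well plates. GI50 marks 50% less growth.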 Activity calls are given as the source filed them. Cut-off read from the data, not from the text of the source: active = GI50 up to about 1.1 µM and inactive = higher. Bounds are passed on as bounds.

As to `CC(OC(=O)C(CC(=O)OC(C)(C)C)NC(=O)OC(C)(C)C)C(=O)OCc1ccccc1` (centres undefined), the GI50 in the experiment on 786-0, with A549, in the experiment on EKVX, in the experiment on HOP-62, in the experiment on K562 and with KM12 was > 100 µM (inactive) each time. The GI50 in the experiment on M14, in the experiment on MCF7, with MOLT-4, with NCI-H226, with NCI/ADR-RES and in the experiment on OVCAR-3 was > 100 µM (inactive) each time. In addition, the GI50 in the experiment with OVCAR-5, in the experiment on RPMI-8226, with RXF 393, with SF-539, in the experiment on SK-OV-3 and with SNB-19 was > 100 µM (inactive) in each case. Also, in the experiment with U-251, the GI50 is > 100 µM (inactive).

As to `CO[P@@]1(=O)O[C@@H](c2ccccc2)[C@H](O)[C@]1(O)c1ccccc1`, the GI50 in the experiment with 786-0 is > 100 µM (inactive); in the experiment on A549 it was > 100 µM (inactive); with EKVX, 24.9 µM (inactive); with K562 it was > 100 µM (inactive); in the experiment on KM12 it was > 100 µM (inactive); in the experiment with M14 it was > 100 µM (inactive). The GI50 in the experiment with MCF7, with MOLT-4, with NCI-H226, in the experiment with NCI/ADR-RES, with OVCAR-3 and with RPMI-8226 was > 100 µM (inactive) throughout. Also, the GI50 with RXF 393, in the experiment on SF-539, in the experiment on SK-MEL-5, with SK-OV-3, with SNB-19 and with U-251 was > 100 µM (inactive) throughout.

Regarding `C=C1C(=O)C2=C[C@H]1C[C@H](O)C(=O)[C@]1(C)CCCC(C)(C)[C@H]1C[C@H]2O`, the GI50 was 0.959 µM (active) with 786-0; 0.665 µM (active) in the experiment on A549; 1.73 µM (inactive) with EKVX; 12.9 µM (inactive) in the experiment on HOP-62; 0.215 µM (active) with K562; 2.93 µM (inactive) in the experiment with KM12. Moreover, the GI50 in the experiment on M14 is 1.52 µM (inactive); with MCF7, 0.388 µM (active); with MOLT-4, 0.979 µM (active); with NCI-H226, 10.5 µM (inactive); in the experiment on NCI/ADR-RES, 1.67 µM (inactive); in the experiment on OVCAR-3, 2.02 µM (inactive). For the same compound, the GI50 in the experiment with OVCAR-5 was 1.93 µM (inactive); in the experiment on RPMI-8226, 0.235 µM (active); with RXF 393 it was 0.315 µM (active); in the experiment on SF-539, 1.33 µM (inactive); with SK-OV-3, 12.8 µM (inactive); with SNB-19, 16.1 µM (inactive). In addition, the GI50 in the experiment on U-251 was 1.32 µM (inactive).

Take `CC[C@H](C)C1=C(O)[N@+]2([O-])Oc3ccc(-c4c(O)c(O)c(-c5ccc(O)cc5)c(OC(C)=O)c4OC(C)=O)cc3O[C@]2([C@@H](C)CC)C(=O)N1O`: the GI50 is 47.2 µM (inactive) in the experiment on 786-0; 16.7 µM (inactive) with A549; > 50 µM (inactive) in the experiment with EKVX; 30.1 µM (inactive) in the experiment on HOP-62; 21.4 µM (inactive) in the experiment with K562; 33.7 µM (inactive) in the experiment with KM12. In addition, the GI50 with M14 was 30.2 µM (inactive); in the experiment with MCF7 it was 18.7 µM (inactive); in the experiment with MOLT-4, 16.3 µM (inactive); with NCI/ADR-RES, 16.5 µM (inactive); in the experiment with OVCAR-3, 19.8 µM (inactive); in the experiment with OVCAR-5 it was > 50 µM (inactive). The GI50 in the experiment on RPMI-8226 was 10.6 µM (inactive); in the experiment with RXF 393, > 50 µM (inactive); with SF-539, 18 µM (inactive); in the experiment on SK-MEL-5, 19 µM (inactive); in the experiment on SK-OV-3, 15.9 µM (inactive); in the experiment on SNB-19, 47.3 µM (inactive). Moreover, the GI50 in the experiment on U-251 was 26.7 µM (inactive).

`Cc1ccc(C(C)C)c(OCC(=O)N/N=C/c2c[nH]c3ccc(Br)cc23)c1`: the GI50 is 3.42 µM (inactive) in the experiment with 786-0; 3.1 µM (inactive) in the experiment on A549; 2.86 µM (inactive) in the experiment on EKVX; 5.79 µM (inactive) with HOP-62; 2.38 µM (inactive) in the experiment on K562; 1.41 µM (inactive) with KM12. Besides, the GI50 is 1.98 µM (inactive) in the experiment with M14; 0.45 µM (active) in the experiment with MCF7; 3.3 µM (inactive) with MOLT-4; 1.57 µM (inactive) in the experiment on NCI/ADR-RES; 2.19 µM (inactive) in the experiment with OVCAR-3; 5.11 µM (inactive) with OVCAR-5. The GI50 in the experiment on RPMI-8226 is 2.47 µM (inactive); with RXF 393, 1.37 µM (inactive); in the experiment with SF-539, 1.72 µM (inactive); in the experiment on SK-MEL-5 it was 1.38 µM (inactive); in the experiment on SK-OV-3 it was 2.58 µM (inactive); with SNB-19, 2.87 µM (inactive). In addition, in the experiment with U-251, the GI50 was 3.11 µM (inactive).

Turning to `CC(=O)OC1OC(c2ccoc2)C[C@@]12C1CCC3O[C@]3(C)[C@]1(C)C[C@H](OC(C)=O)[C@H]2C` (some centres undefined), the GI50 in the experiment with 786-0, in the experiment with A549, with EKVX, in the experiment with K562, in the experiment with KM12 and in the experiment on M14 was > 75 µM (inactive) each time. Besides, the GI50 was 44.9 µM (inactive) with MCF7; > 75 µM (inactive) with MOLT-4; > 75 µM (inactive) in the experiment on NCI-H226; > 75 µM (inactive) in the experiment on NCI/ADR-RES; > 75 µM (inactive) with OVCAR-3; > 75 µM (inactive) with OVCAR-5. The GI50 in the experiment with RPMI-8226 was 44 µM (inactive); in the experiment with RXF 393, > 75 µM (inactive); with SF-539 it was > 75 µM (inactive); with SK-MEL-5, > 75 µM (inactive); in the experiment with SK-OV-3, > 75 µM (inactive); in the experiment with SNB-19 it was > 75 µM (inactive). Besides, the GI50 in the experiment with U-251 was > 75 µM (inactive).

With `CCC(=O)Nc1ccc(N2C(=O)/C(=C/c3ccc(O)c(OC)c3)N=C2c2ccccc2)cc1`, the GI50 in the experiment on 786-0 is 24 µM (inactive); with A549, 21.3 µM (inactive); in the experiment on EKVX it was 17.8 µM (inactive); in the experiment with HOP-62, 46.6 µM (inactive); with K562, 18.5 µM (inactive); in the experiment with KM12, 33.7 µM (inactive). Besides, the GI50 was 19.7 µM (inactive) with M14; 31.6 µM (inactive) with MCF7; 11.3 µM (inactive) in the experiment on MOLT-4; 19.5 µM (inactive) in the experiment with NCI-H226; 70.6 µM (inactive) in the experiment on NCI/ADR-RES; 28.3 µM (inactive) with OVCAR-3. The GI50 was 40.8 µM (inactive) in the experiment on OVCAR-5; 6.82 µM (inactive) with RPMI-8226; 10.9 µM (inactive) in the experiment on RXF 393; 84.1 µM (inactive) with SF-539; 14.3 µM (inactive) in the experiment with SK-MEL-5; 31 µM (inactive) in the experiment on SK-OV-3. The GI50 with SNB-19 was 22.5 µM (inactive).

Regarding `OC1(c2ccc(Cl)cc2)C(N2CCCC2)c2ccccc2C2=NCCN21` (centres undefined), the GI50 in the experiment with 786-0 is 35.1 µM (inactive); with A549, 39.9 µM (inactive); with EKVX, 26 µM (inactive); with HOP-62 it was 31.8 µM (inactive); in the experiment on K562, 13.6 µM (inactive); in the experiment with KM12, 20.1 µM (inactive). Besides, the GI50 is 15.8 µM (inactive) in the experiment with M14; 28.5 µM (inactive) in the experiment on MCF7; 16 µM (inactive) in the experiment with MOLT-4; 18.6 µM (inactive) with NCI/ADR-RES; 37.2 µM (inactive) in the experiment on OVCAR-3; 43.7 µM (inactive) in the experiment on OVCAR-5. Moreover, the GI50 in the experiment with RPMI-8226 is 13 µM (inactive); with RXF 393, 29.1 µM (inactive); with SF-539, 18.5 µM (inactive); in the experiment on SK-MEL-5 it was 15.1 µM (inactive); in the experiment on SK-OV-3 it was 20.9 µM (inactive); in the experiment on SNB-19, 54.3 µM (inactive). For the same compound, the GI50 with U-251 was 37.4 µM (inactive).

Turning to `CCOC(=O)C1=C(Cl)c2cccnc2C1=O`, the GI50 was 44 µM (inactive) in the experiment on 786-0; 55.7 µM (inactive) in the experiment with A549; 62.5 µM (inactive) with EKVX; 32.2 µM (inactive) in the experiment with HOP-62; 54.7 µM (inactive) with K562; > 100 µM (inactive) in the experiment on KM12. Besides, the GI50 in the experiment with M14 was 54.2 µM (inactive); with MCF7, 38.5 µM (inactive); in the experiment with MOLT-4, 34 µM (inactive); in the experiment on NCI-H226 it was > 100 µM (inactive); in the experiment with NCI/ADR-RES, > 100 µM (inactive); with OVCAR-3, 19.8 µM (inactive). The GI50 was 87.3 µM (inactive) with RPMI-8226; > 100 µM (inactive) in the experiment with RXF 393; 82.6 µM (inactive) in the experiment with SF-539; 53.6 µM (inactive) in the experiment on SK-MEL-5; > 100 µM (inactive) in the experiment with SK-OV-3; 53 µM (inactive) in the experiment on SNB-19. In the experiment with U-251, the GI50 was 35.6 µM (inactive).

As to `O=C(O)c1cc(C(=O)C(=O)c2cc(C(=O)O)c(O)c3ccccc23)c2ccccc2c1O`, the GI50 in the experiment on 786-0, with A549, in the experiment with EKVX, with HOP-62, with K562 and in the experiment on KM12 was > 100 µM (inactive) each time. For the same compound, the GI50 in the experiment with M14, with MCF7, in the experiment on NCI-H226, in the experiment on NCI/ADR-RES, in the experiment with OVCAR-3 and with OVCAR-5 was > 100 µM (inactive) throughout. The GI50 in the experiment with RPMI-8226, in the experiment with RXF 393, in the experiment with SF-539, in the experiment with SK-MEL-5, in the experiment with SK-OV-3 and in the experiment with SNB-19 was > 100 µM (inactive) in each case. Besides, the GI50 in the experiment on U-251 is > 100 µM (inactive).
